# What was measured:
# Assay type in all cases: cell-based, human
# [1] = tested on: CD44; assay: CD44 protein abundance in MDA-MB-231 cells (immunoblot, immunofluorescence); conditions: for protein abundance of CD44, immunoblotting: 100 pM TGFβ, 100 μg/mL rhPRG4 in the absence or presence of TGFβ; for CD44 immunostaining signal in organoids: 8 day-old organoids, absence or presence of TGFβ
# Procedure: (§1) For immunofluorescence analysis of 3D-organoids, 600 MDA-MB-231 cells were grown within 80 μL of 50% Matrigel on top of 80 μL of 33% Matrigel coat in each well of ultra-low attachment 8-well chamber slides (Millipore-Sigma, USA). After DIC imaging on Day 8, the live multicellular structures were fixed with 4% formaldehyde, followed by permeabilization using 0.5% ice-cold Triton X-100 solution and blocking using 10% bovine serum albumin (BSA) in phosphate-buffered saline (PBS). For immunofluorescence analysis of monolayer cell culture, cells were seeded onto wells of a Falcon 8-well chamber culture slides (Corning Incorporated, USA), followed by fixing and permeabilization as described for the 3D cultures, and blocking with 5% BSA and 5% calf serum in PBS. Laminin and CD44 in cells were visualized by subjecting the three-dimensional or monolayer cultures to indirect immunofluorescence using a rat anti-laminin antibody (Abcam, Canada) and rat anti-CD44 antibody (Thermo Fisher, Canada) as the primary antibody, respectively, and Alexa 647-conjugated anti-rat IgG (ThermoFisher, Canada) as the secondary antibody. Actin in cells was visualized by incubating the fixed cultures with tetramethylrhodamine isothiocyanate (TRITC)-conjugated phalloidin (Millipore-Sigma, Canada). The DNA binding dye bisbenzimide (Hoechst 33342; Invitrogen, Canada) was used to detect nuclei. For CD44 knockdown analysis, the vector or CD44 shRNA transfected cells were identified by GFP signal. Immunofluorescence images were captured using an epifluorescence microscope with a 40× objective lens (Olympus Bx WI Confocal Microscope, Canada). Exposure times for laminin, actin, nuclei and GFP-specific signals were kept constant in each experiment. For each condition, 3 colonies/fields per experiment were captured, which were chosen as representative of the stained cells within each slide per experiments. Each experiment was repeated two independent times.
# Cells were washed with PBS to remove all growth media. Appropriate volume of TNTE lysis buffer (50 mM Tris, 150 mM NaCl, 1 mM EDTA, 0.5% [v/v] Triton-X-100) containing protease and phosphatase inhibitors, was added to the cell monolayer and incubated at 4° C. under vigorous shaking for 20 minutes. Lysates were then collected in microcentrifuge tubes and centrifuged at 13,000 g for 10 minutes at 4° C. 5 μL of the lysate were subjected to protein concentration determination using Bradford-based protein assays (Bio-Rad Laboratories, Canada). Lysates were boiled for 3 minutes at 95° C. in dithiothreitol (DTT)-containing Laemmli sample buffer. […] Densitometric analyses were performed using Quantity One software (Bio-Rad Laboratories, Canada).
# [2] = tested on: Hep3B; assay: 72-hour proliferation assay, Hep3B; conditions: only at the highest rhPRG4 concentrations; drug 2.5 μM
# Procedure: Proliferation assay: In 100 μl complete medium, 3,000 cells were seeded in wells of a 96-well plate and left overnight to allow complete attachment. The next day (at time t=0 hours), the medium was removed and replaced with 100 μl of fresh medium in the presence/absence of Sorafenib (2.5 μM), Regorafenib (2.5 μM), rhPRG4 (12.5 to 100 μg/ml). Dimethyl sulfoxide (DMSO) and PBS+0.01% Tween-20 were used as vehicles of Sorafenib/Regorafenib, and rhPRG4, respectively. Cells in triplicate wells for each cell line were fixed at t=0 hours with 4% paraformaldehyde (PFA, pH 7.6, 10 min incubation), then stained with crystal violet (CV) and thoroughly washed to remove the excess staining. After 72 hours, the cells were fixed by adding 100 μl of 4% PFA directly to the medium (2% final PFA concentration, 20 min incubation), and processed for CV staining as previously described. Then, 100 or 200 μl of 1% sodium dodecyl-sulphate were added to the wells and the plates were left under shaking until complete CV release from stained cells. Optical density was at 595 nm wavelength measured using a plate reader.
# [3] = tested on: MDA-MB-231 cell-derived organoids; assay: Laminin/actin fluorescence staining of 3D organoids; conditions: 8 day old organoids; absence or presence of TGFβ
# Procedure: as §1, with “For CD44 knockdown analysis, the vector or CD44 shRNA transfected cells were identified by GFP signal. Immunofluorescence images were captured using an epifluorescence microscope with a 40× objective lens (Olympus Bx WI Confocal Microscope, Canada). Exposure times for laminin, actin, nuclei and GFP-specific signals were kept constant in each experiment. For each condition, 3 colonies/fields per experiment were captured, which were chosen as representative of the stained cells within each slide per experiments. Each experiment was repeated two independent times.” left out
# [4] = tested on: MDA-MB-231 cell-derived organoids; assay: Three-dimensional Matrigel culture, proportion of spherical vs invasive organoids
# Procedure: For three-dimensional culture assays, 50 μl of ice-cooled 33% growth factor-reduced Matrigel (Corning Incorporated, USA) in complete growth medium, consisting of DMEM containing 10% FBS, penicillin, streptomycin and amphotericin B (Invitrogen, Canada), was added per well of a 96-well flat bottom, ultra-low attachment plate (BD Biosciences, Canada) followed by storing the plate for 1 hour in a 5% CO2 humidified incubator at 37° C. to allow formation of a 1 mm-thick Matrigel bed in the well. Next, approximately 400 isolated MDA-MB-231 cells, suspended in 50 μl ice-cooled 50% Matrigel in complete growth medium, were layered on top of the Matrigel bed per well of the 96-well plate and incubated inside 5% CO2 humidified incubator at 37° C. One hour post addition and 37° C. incubation of Matrigel-cells suspension, 50 μl of complete growth medium was added to cover the solidified Matrigel-cells mixture. The following day and, every third day, the three-dimensional cultures received 50 μl of fresh complete growth medium without or with specified reagents as listed in the figure descriptions. On Day 8 of culture, differential interference contrast (DIC) images were captured of 8 representative organoids from each well, using light microscopy at 30× objective (Olympus IX70, Canada). […] Number of smooth surfaced organoids without any protrusions, designated as “spherical” were counted out of eight representative images in each well and then percentage of spherical organoids in each condition were plotted in bar graphs. Each experiment was performed at least three independent times for statistical analyses.
substance,measurement,setting,value
rhPRG4: full-length recombinant human PRG4 (lubricin) glycoprotein produced by CHO-M cells; residues 25-1404 of SEQ ID NO:1,"protein abundance of CD44, immunoblotting",[1],reduced the protein abundance of CD44
same,CD44 immunostaining signal in organoids,[1],reduced this signal
same,rhPRG4-drug synergistic effect,[2],"present during Hep3B proliferation, even if lower"
same,basal lamina (laminin) status and actin organization,[3],promoted cortical actin organization and solid laminin ring formation
same,"TGFβ or LMWHA-induced invasive growth, vector control transfected cells","[4]; 100 pM TGFβ or 400 μg/mL LMWHA, 100 μg/mL rhPRG4",significantly reversed
same,TGFβ-induced invasive growth of organoids,"[4]; 100 pM TGFβ, 8-day, rhPRG4 0.1, 10, 100 μg/mL, KI 10 μM, 4-MU 0.5 mM",drastically repress TGFβ-induced invasiveness
same,LMWHA-induced invasive growth of 4-MU-treated organoids,"[4]; 0.5 mM 4-MU, 400 μg/mL LMWHA, 100 μg/mL rhPRG4",suppressed LMWHA-induced invasive growth
same,LMWHA-induced invasive growth of organoids,"[4]; LMWHA 10-400 μg/mL, 100 μg/mL rhPRG4, KI 10 μM",suppressed the ability of LMWHA to promote the invasive growth
same,TGFβ and LMWHA-induced invasive growth of organoids,"[4]; LMWHA 100 or 400 μg/mL, 100 pM TGFβ, CD44 antibody 2.5 μg/mL, rhPRG4 100 μg/mL",suppressed TGFβ and LMWHA-induced invasive growth
same,"TGFβ-induced invasive growth, rhPRG4 applied to the Matrigel prior to culture","[4]; Matrigel mixed with 100 μg/mL rhPRG4, 100 pM TGFβ",sufficient to suppress TGFβ-induced invasive growth
same,invasive growth promoted by overexpressed CD44/FLAG,"[4]; absence or presence of TGFβ or LMWHA, 100 μg/mL rhPRG4",suppressed the ability of overexpressed CD44 to promote invasive growth
TGFβ: recombinant human mature transforming growth factor beta (R&D systems) [reference compound],"protein abundance of CD44, immunoblotting",[1],promoted the protein abundance of CD44
same,CD44 immunostaining signal in organoids,[1],enhanced the CD44-immnostaining signal
same,basal lamina (laminin) status and actin organization,[3],disrupted basement membrane organization
same,effect of TGFβ on LMWHA-induced invasive growth,[4]; 100 pM TGFβ with LMWHA,further enhanced the ability of LMWHA to induce invasive growth
same,"invasive growth of organoids, stimulus alone","[4]; 100 pM TGFβ, LMWHA 10, 100 or 400 μg/mL, 8-day",promoted an invasive growth

# — US20220332839A1, “USE OF PRG4 TO TREAT CANCER” (Lubris LLC, priority 2019, published 2022)
